Here are results for three compounds from patent US20110015371A1 (Vertex Pharmaceuticals Incorporated, priority 1994, published 2011).

Non-standard residues stand in square brackets, D forms with d. Residues, ends and D or L forms follow the SMILES beside them. Pip = O=C(O)[C@@H]1CCCCN1

The target in series [1] is T1, ICE (Homo sapiens, UniProt P29466).
T1 sequence (P29466 120-297 limits assumed): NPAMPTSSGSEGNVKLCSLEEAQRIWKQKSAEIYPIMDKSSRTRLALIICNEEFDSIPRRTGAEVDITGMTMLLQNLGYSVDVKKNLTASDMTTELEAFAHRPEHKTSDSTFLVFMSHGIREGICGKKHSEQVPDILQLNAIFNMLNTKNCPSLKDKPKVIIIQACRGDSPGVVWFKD
T1 sequence (P29466 317-404 limits assumed): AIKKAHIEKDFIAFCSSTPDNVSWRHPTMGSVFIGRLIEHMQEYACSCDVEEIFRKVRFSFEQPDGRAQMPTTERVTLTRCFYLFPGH
The experiment in a line: Enzyme assay with UV-visible substrate (Succinyl-Tyr-Val-Ala-Asp-pNitroanilide). It is filed as biochemical. In short, it runs like this:
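Colorimetric caspase-1 assay: rate of chromophore release from the pNA-tetrapeptide substrate monitored at 37° C for 20 minutes at 405-603 nm, after 15 min room-temperature enzyme–inhibitor preincubation. Ki values and competitive/uncompetitive/noncompetitive mode obtained by kinetic-equation fitting of rates across inhibitor concentrations.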

Series [2] deals with Human Peripheral Blood Mononuclear Cells (PBMC) or Enriched Adherent Mononuclear Cells. The experiment in a line: Cell assay: IL-1β assay with human PBMC or enriched adherent mononuclear cells. The class given is cell-based. To be noted: Homo sapiens, PBMC, LPS-stimulated cells, mature IL-1β in supernatant by ELISA. In short, it runs like this:
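Human PBMC (suspension at 6×10^6 cells/ml) or adherent monocytes enriched by 1 h plating (2.5−3.0×10^5 cells/well) were stimulated with 5 ng/ml LPS (final) plus compound (5-6 dilutions, 0.1% DMSO final) for 16-18 hr at 37° C. Mature IL-1β in supernatants quantified by ELISA; duplicate cultures, duplicate ELISAs.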
In general terms: An ELISA detects its analyte on a solid surface through an enzyme-linked reagent.

Series [3] concerns the target T1, ICE. The experiment in a line: Enzyme assay with fluorescent substrate (Acetyl-Tyr-Val-Ala-Asp-AMC). Conditions: Example 2 table, read-out: Fluorescence Ki. It is filed as biochemical. How it is done: 2. Enzyme Assay with Fluorescent Substrate
This assay is run essentially according to Thornberry et al. (Nature 356: 768-774 (1992)), using substrate 17 referenced in that article. The substrate is: Acetyl-Tyr-Val-Ala-Asp-amino-4-methylcoumarin (AMC). The following components are mixed:
The assay is run in a 96 well microtiter plate. Buffer and ICE are added to the wells. The components are left to incubate at 37° C. for 15 minutes in a temperature-controlled wellplate. After the 15 minute incubation, the reaction is started by adding substrate directly to the wells and the reaction is monitored @37° C. for 30 minutes by following the release of the AMC fluorophore using an excitation wavelength for 380 nm and an emission wavelength of 460 nm. A linear fit of the data for each well is performed and a rate is determined in fluorescence units per second.
For determination of enzyme inhibition constants (Ki) or the mode of inhibition (competitive, uncompetitive or noncompetitive), the rate data determined in the enzyme assays at varying inhibitor concentrations are computer-fit to standard enzyme kinetic equations (see I. H. Segel, Enzyme Kinetics, Wiley-Interscience, 1975).

With `O=C[C@H](CC(=O)O)NC(=O)Cn1c(Cc2ccccc2)ccc(NC(=O)OCCc2ccccc2)c1=O` [Compound 54k, 3(S)3-(6-Benzyl-1,2-dihydro-2-oxo-3-(2-phenylethoxy)carbonylamino-1-pyridyl)acetylamino-4-oxobutanoic acid], the melting point (in general, the temperature, or range, at which the solid turns liquid) is 84 to 86 °C. In addition, at ICE [1] (Example 4 table), the inhibitory constant (Ki) (as a rule, a dissociation constant, usually derived from enzyme kinetics or from competition with a known ligand) was found to be 85 nM. For the same compound, the IC50 (as a rule, the point on the concentration scale where inhibition reaches its midpoint) in series [2] (Example 6 table) is 6600 nM.
The compound `O=C(O)C[C@H](NC(=O)[C@@H]1CCCN2C(=O)CC[C@H](NC(=O)CCc3ccccc3)C(=O)N12)C(=O)CSCc1ccccc1Cl` [Compound 125b, [3S(1S,9S)]-3-(6,10-dioxo-1,2,3,4,7,8,9,10-octahydro)-9-(3-phenylpropionyl-amino)-6H-pyridazine[1,2-a][1,2]diazepine-1-carboxamido-5-(2-chlorophenyl-methylthio)-4-oxopentanoic acid] gave a melting point of 76 to 80 °C. The compound also registered a Ki on ICE [1] (Example 6 table) of 60 nM. The compound further had an IC50 in series [2] (Example 6 table) of 300 nM.
As to `CC(=O)N[C@@H](Cc1ccc(O)cc1)C(=O)N[C@H](C(=O)N1CCCC[C@H]1C(=O)N[C@H](C=O)CC(=O)O)C(C)C` [H, N-(N-Acetyl-tyrosinyl-valinyl-pipecolyl)-3-amino-4-oxobutanoic acid] (Ac-YV[Pip]D-aldehyde), the inhibition constant (Ki) was found to be 23 nM on ICE [1] (Example 2 table) and 4.7 nM at ICE [3]. The IC50 in series [2] (Example 2 table) lay in the range of 6000 to 11000 nM.
